Assay [1] relates to TLR7 induced IL-6 secretion in human mononuclear cells (PBMC's). The experiment in a line: TLR7 induced IL-6 in human PBMC's. The assay is classed as cell-based. The conditions noted are these: TLR7 specific ligand 2 uM overnight, IL-6 AlphaLISA. Here is the method: TLR7 Induced IL-6 in Human PBMC's
Human PBMC assay was used as one of the functional assaya to monitor the activity of IRAK1 and IRAK4 small molecule inhibitors on TLR7 induced IL-6 secretion in human mononuclear cells (PBMC's). Human PBMCs were prepared from buffy coats (whole blood enriched with leukocytes and platelets) obtained from healthy volunteers used either fresh or frozen are plated in assay media (RPMI+2% P/S/L-glu+10% HI-FBS) and pre-treated with compounds in DMSO/media (range of concentrations from 25 uM to 0.4 nM) or controls (0.25% DMSO) for 30 minutes at 37° C. in assay media. Following pre-treatment with IRAK1 and IRAK4 inhibitors, PBMC's were stimulated with TLR7 specific ligand (2 uM) overnight (16-18 hrs) at 37° C. After incubation supernatant was transferred to 384 well PE AlphaPlate-384 (6005350) and IL-6 is quantified using Perkin Elmer IL-6 Alpha LISA kit (AL223C). Plates were read on an Envision® plate reader with Alpha Technology®.

For another assay, the target named is T1, IRAK1 (Homo sapiens, UniProt P51617).
T1 construct: His-TEV-IRAK1 (194-712); His (N); TEV cleavage site (N)
The experiment in a line: IRAK1 enzymatic assay (ADP-Glo luminescence). Format: biochemical. The note with it: human recombinant His-TEV-IRAK1 (194-712), ATP 1 μM; read-out: IRAK 1 IC50. The procedure:
IRAK1 is a human purified recombinant enzyme (His-TEV-IRAK1 (194-712))
In this assay, IRAK1 hydrolyses ATP and autophosphorylates. Measurement of IRAK-1 inhibition is performed in 384-well format based on luminescence assay (ADP-Glo™ Kinase Assay from Promega). Purified human recombinant IRAK1 ([…]) and serial diluted compounds in DMSO (range of concentration from 10 μM to 0.5 nM) or controls (1% DMSO) are incubated for 15 minutes at RT in assay buffer containing 50 mM Hepes pH 7.0, Fatty acid-free BSA 0.1%, Dithiothreitol (DTT) 2 mM, MgCl2 10 mM, EGTA 0.5 mM, Triton X-100 0.01%. The kinase reaction is then initiated by the addition of ATP at a concentration of 1 μM. After 2 hours of incubation at RT, the reaction is stopped and the unconsumed ATP depleted by the addition of ADP-Glo™ Reagent according to supplier instructions. After 40 minutes of incubation at RT, the Kinase Detection Reagent is then added to the assay plate according to supplier instructions. After 20 minutes of incubation at RT, the luminescence signal is measured with a luminometer (PerkinElmer Envision or equivalent reader).

The target of the next assay is T2, IRAK4 (Homo sapiens, UniProt Q9NWZ3).
T2 construct: His-TEV-IRAK4 (1-460); His (N); TEV cleavage site (N)
T2 sequence (Q9NWZ3 1-460): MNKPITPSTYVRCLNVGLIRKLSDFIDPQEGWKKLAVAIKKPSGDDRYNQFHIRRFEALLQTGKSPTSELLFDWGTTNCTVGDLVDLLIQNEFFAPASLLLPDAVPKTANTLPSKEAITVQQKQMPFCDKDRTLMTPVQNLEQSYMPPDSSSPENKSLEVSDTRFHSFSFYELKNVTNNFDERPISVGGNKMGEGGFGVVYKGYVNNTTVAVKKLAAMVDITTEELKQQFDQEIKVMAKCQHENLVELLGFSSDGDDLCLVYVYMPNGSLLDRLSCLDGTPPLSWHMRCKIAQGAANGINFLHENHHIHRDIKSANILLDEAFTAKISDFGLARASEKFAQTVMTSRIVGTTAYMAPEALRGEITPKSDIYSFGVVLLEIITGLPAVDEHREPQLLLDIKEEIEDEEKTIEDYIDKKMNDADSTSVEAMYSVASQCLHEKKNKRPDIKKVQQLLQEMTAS
The experiment in a line: IRAK4 enzymatic assay (ADP-Glo luminescence). The assay is classed as biochemical. The conditions noted are these: human recombinant His-TEV-IRAK4 (1-460), STK1-biotin peptide substrate. The procedure:
IRAK4 is a human purified recombinant enzyme (His-TEV-IRAK4 (1-460)).
In this assay, IRAK4 hydrolyses ATP, autophosphorylates and phosphorylates a Serine/Threonine generic peptidic substrate (STK: 61ST1BLC from CisBio International). Measurement of IRAK-4 inhibition is performed in 384-well format based on a luminescence assay (ADP-Glo™ Kinase Assay from Promega). Purified human recombinant IRAK4 ([…]) and serial diluted compounds in DMSO (range of concentration from 10 μM to 0.5 nM) or controls (1% DMSO) are incubated for 15 minutes at RT in assay buffer containing 50 mM Hepes pH 7.0, Fatty acid-free BSA 0.1%, Dithiothreitol (DTT) 2 mM, MgCl2 10 mM, EGTA 0.5 mM, Triton X-100 0.01%, MnCl2 5 mM. The kinase reaction is then initiated by the addition of ATP ([…]) and the peptidic substrate STK1-biotin peptide (300 nM). After 2 hours of incubation at RT, the reaction is stopped and the unconsumed ATP depleted by the addition of ADP-Glo™ Reagent according to supplier instructions. After 40 minutes of incubation at RT, the Kinase Detection Reagent is then added to the assay plate according to supplier instructions. After 20 minutes of incubation at RT, the luminescence signal is measured with a plate-reading luminometer (PerkinElmer Envision or equivalent reader).
A general note: In ADP-Glo the light output rises with the ADP produced.

The source of these data is US9969710B2, “Heteroaryl compounds as IRAK inhibitors and uses thereof” (Merck Patent GmbH, priority 2015, dated 2018).

T1 sequence (P51617 194-712): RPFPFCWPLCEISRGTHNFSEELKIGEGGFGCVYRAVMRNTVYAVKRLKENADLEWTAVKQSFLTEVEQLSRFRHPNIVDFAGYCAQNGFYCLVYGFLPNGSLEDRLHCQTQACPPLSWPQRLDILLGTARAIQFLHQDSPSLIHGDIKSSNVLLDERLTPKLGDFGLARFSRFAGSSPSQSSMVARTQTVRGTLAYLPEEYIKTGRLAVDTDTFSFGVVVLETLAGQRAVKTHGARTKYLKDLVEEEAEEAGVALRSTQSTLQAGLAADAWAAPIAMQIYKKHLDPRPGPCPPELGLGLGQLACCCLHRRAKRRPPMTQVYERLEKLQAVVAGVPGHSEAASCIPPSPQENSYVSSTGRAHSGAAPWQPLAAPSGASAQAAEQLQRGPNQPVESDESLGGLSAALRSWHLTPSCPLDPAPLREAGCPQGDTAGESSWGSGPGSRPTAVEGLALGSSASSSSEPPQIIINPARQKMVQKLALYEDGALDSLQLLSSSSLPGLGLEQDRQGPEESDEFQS

On to `CN1CCCC(c2ccc3c(c2)[nH]/c(=N\C(=O)c2cccc(C(F)(F)F)c2)n3CCC(O)CO)C1=O` (stereo not drawn) [Compound 22, N-[1-(3,4-Dihydroxy-butyl)-5-(1-methyl-2-oxo-piperidin-3-yl)-1,3-dihydro-benzoimidazol-(2E)-ylidene]-3-trifluoromethyl-benzamide], for which the IC50 – broadly, the concentration needed to halve the response being measured – in assay [1] (Homo sapiens, PBMC) was not above 100 nM; at IRAK1, 100 to 1000 nM; at IRAK4, not above 100 nM.

Take `CN1CCC(c2ccc3c(c2)nc(NC(=O)c2cccc(C(F)(F)F)c2)n3CCCO)C1=O` (single isomer, unassigned) [Compound 23a]: the IC50 is not above 100 nM in assay [1] (Homo sapiens, PBMC); 100 to 1000 nM on IRAK1; not above 100 nM on IRAK4.

`CC(=O)N1CCCC(c2ccc3c(c2)[nH]/c(=N\C(=O)c2cccc(C(F)(F)F)c2)n3CCCO)C1` (stereo not drawn) [Compound 14, (E)-N-(5-(1-acetylpiperidin-3-yl)-1-(3-hydroxypropyl)-1H-benzo[d]imidazol-2(3H)-ylidene)-3-(trifluoromethyl)benzamide]: the IC50 in assay [1] (Homo sapiens, PBMC) was not above 100 nM; at IRAK1 it was not above 100 nM; on IRAK4, not above 100 nM.

For `CN1CCCC(c2ccc3c(c2)[nH]/c(=N\C(=O)c2cccc(C(F)(F)F)c2)n3CCC(O)CO)C1=O` (single isomer, unassigned) [Compound 22c], the IC50 was 1000 to 10000 nM in assay [1], 100 to 1000 nM on IRAK1 and not above 100 nM at IRAK4.

Take `CN1CCC(c2ccc3c(c2)[nH]/c(=N\C(=O)c2cccc(C(F)(F)F)c2)n3CCC(O)CO)C1=O` (single isomer, unassigned) [Compound 21c]: the half-maximal inhibitory concentration (IC50) in assay [1] is not above 100 nM; at IRAK1 it was 100 to 1000 nM; on IRAK4 it was not above 100 nM.

As for `CN1CCC(C)(c2ccc3c(c2)nc(NC(=O)c2cccc(C(F)F)c2)n3CCCO)C1=O` (single isomer, unassigned) [Compound 30a], the 50% inhibitory concentration (IC50) in assay [1] (Homo sapiens, PBMC) is 1000 to 10000 nM; at IRAK1, 1000 to 10000 nM; on IRAK4, not above 100 nM.

On to `CN1CC(c2ccc3c(c2)nc(NC(=O)c2cccc(C(F)F)c2)n3CCCO)C(C)(C)C1=O` (single isomer, unassigned) [Compound 27a], for which the 50% inhibitory concentration (IC50) in assay [1] (Homo sapiens, PBMC) was 100 to 1000 nM; at IRAK1 it was not above 100 nM; on IRAK4, not above 100 nM.

On to `CN1CCCC(c2ccc3c(c2)[nH]/c(=N\C(=O)c2cccc(C(F)(F)F)c2)n3C[C@](C)(F)CO)C1=O` (stereo partly drawn) [Compound 16, (E)-N-(1-((S)-2-fluoro-3-hydroxy-2-methylpropyl)-5-(1-methyl-2-oxopiperidin-3-yl)-1H-benzo[d]imidazol-2(3H)-ylidene)-3-(trifluoromethyl)benzamide], for which the IC50 in assay [1] (Homo sapiens, PBMC) was 100 to 1000 nM; at IRAK1, 100 to 1000 nM; on IRAK4, not above 100 nM.

With `CN1CCCC(c2ccc3c(c2)[nH]/c(=N\C(=O)c2cccc(C(F)(F)F)c2)n3CCC(O)CO)C1=O` (single isomer, unassigned) [Compound 22b], the IC50 (in assay [1]; on IRAK1; on IRAK4) was not above 100 nM each time.

For `CN1CCC(c2ccc3c(c2)[nH]/c(=N\C(=O)c2cccc(C(F)(F)F)c2)n3CC(O)CO)C1=O` (single isomer, unassigned) [Compound 20a], the IC50 was 100 to 1000 nM in assay [1], 100 to 1000 nM on IRAK1 and not above 100 nM on IRAK4.

In the case of `CN1C(=O)CCC1(C)c1ccc2c(c1)nc(NC(=O)c1cccc(C(F)(F)F)c1)n2CCCO` (single isomer, unassigned) [Compound 32b], the IC50 is 1000 to 10000 nM in assay [1], 100 to 1000 nM on IRAK1 and not above 100 nM at IRAK4.

For `CN1CC(c2ccc3c(c2)nc(NC(=O)c2cccc(C(F)(F)F)c2)n3CCCO)C(C)(C)C1=O` (single isomer, unassigned) [Compound 25a], the IC50 in assay [1] (Homo sapiens, PBMC) is 100 to 1000 nM; at IRAK1, not above 100 nM; at IRAK4 it was not above 100 nM.

As for `C=CCCn1/c(=N/C(=O)c2cccc(C(F)(F)F)c2)[nH]c2cc(C3CCN(C)C3=O)ccc21` (stereo not drawn) [Compound 17, N-[1-But-3-enyl-5-(1-methyl-2-oxo-pyrrolidin-3-yl)-1,3-dihydro-benzoimidazol-(2E)-ylidene]-3-trifluoromethyl-benzamide], the 50% inhibitory concentration (IC50) in assay [1] (Homo sapiens, PBMC) was 100 to 1000 nM; on IRAK1, 100 to 1000 nM; on IRAK4, not above 100 nM.

Regarding `CC(=O)N1CCC(c2ccc3c(c2)[nH]/c(=N\C(=O)c2cccc(C(F)(F)F)c2)n3CCCO)CC1` [Compound 13, (E)-N-(5-(1-acetylpiperidin-4-yl)-1-(3-hydroxypropyl)-1H-benzo[d]imidazol-2(3H)-ylidene)-3-(trifluoromethyl)benzamide], the IC50 is 100 to 1000 nM in assay [1] (Homo sapiens, PBMC); not above 100 nM at IRAK1; not above 100 nM at IRAK4.

In the case of `CN1C(=O)CCC1(C)c1ccc2c(c1)nc(NC(=O)c1cccc(C(F)(F)F)c1)n2CCCO` (single isomer, unassigned) [Compound 32a], the IC50 was 1000 to 10000 nM in assay [1] (Homo sapiens, PBMC); 100 to 1000 nM at IRAK1; not above 100 nM at IRAK4.

As to `CN1CCC(c2ccc3c(c2)[nH]/c(=N\C(=O)c2cccc(C(F)(F)F)c2)n3CCC(O)CO)C1=O` (single isomer, unassigned) [Compound 21b], the IC50 in assay [1] is 100 to 1000 nM; on IRAK1, 100 to 1000 nM; at IRAK4, not above 100 nM.

As to `CN1C(=O)CCC1(C)c1ccc2c(c1)nc(NC(=O)c1cccc(C(F)F)c1)n2CCCO` (stereo not drawn) [Compound 31, 3-Difluoromethyl-N-[5-(1,2-dimethyl-5-oxo-pyrrolidin-2-yl)-1-(3-hydroxy-propyl)-1H-benzoimidazol-2-yl]-benzamide], the IC50 in assay [1] (Homo sapiens, PBMC) was 1000 to 10000 nM; at IRAK1, 100 to 1000 nM; on IRAK4 it was not above 100 nM.

As for `CN1CCC[C@H](c2ccc3c(c2)[nH]/c(=N\C(=O)c2cccc(C(F)F)c2)n3C[C@](C)(F)CO)C1=O` (single isomer, unassigned) [Compound 3c], the IC50 in assay [1] (Homo sapiens, PBMC) is not above 100 nM; at IRAK1, 100 to 1000 nM; at IRAK4 it was not above 100 nM.

In the case of `O=C(/N=c1\[nH]c2cc(C3CCCN(CC4CC4)C3=O)ccc2n1CCCO)c1cccc(C(F)(F)F)c1` (stereo not drawn) [Compound 7, (E)-N-(5-(1-(cyclopropylmethyl)-2-oxopiperidin-3-yl)-1-(3-hydroxypropyl)-1H-benzo[d]imidazol-2(3H)-ylidene)-3-(trifluoromethyl)benzamide], the IC50 in assay [1] (Homo sapiens, PBMC) was 100 to 1000 nM; on IRAK1, 100 to 1000 nM; at IRAK4, not above 100 nM.
